Test results from patent US4695545A, “Culture and process for producing A41030 antibiotics” (Eli Lilly and Company, priority 1984, dated 1987).

Assays:
Bacteroides vulgatis = experiment: MIC anaerobic bacteria, agar-dilution; type: cell-based; conditions: Bacteroides vulgatis 1211
[1] = tested on: Staphylococcus epidermidis; experiment: MIC aerobic bacteria, standard agar-dilution assay; type: cell-based; conditions: Staphylococcus epidermidis EPI1, 24 hours
Eubacterium aerofaciens = experiment: MIC anaerobic bacteria, agar-dilution; type: cell-based; conditions: Eubacterium aerofaciens 1235
[2] = Electrometric titration (pKa); type: physicochemical; conditions: electrometric titration in 66% dimethylformamide in water; stated as possible
Source text: Antibiotic A41030 factor A is a white, crystalline solid.

Solubility in solvents = type: physicochemical; conditions: qualitative
Source text: As many as seven antibiotic factors are recovered from the fermentation and are obtained as a mixture, the A41030 complex. It will be recognized that the ratio of the factors in the A41030 complex will vary, depending upon the fermentation conditions used. The individual factors A, B, C, D, E, F, and G are separated and isolated as individual compounds, as hereinafter described.

Clostridium difficile [3] = experiment: MIC anaerobic bacteria, agar-dilution; type: cell-based; conditions: Clostridium difficile 2994; agar-dilution (Table 9)
[4] = tested on: Peptostreptococcus intermedius; experiment: MIC anaerobic bacteria, agar-dilution; type: cell-based; conditions: Peptostreptococcus intermedius 1264
[5] = tested on: Bacteroides thetaiotaomicron; experiment: MIC anaerobic bacteria, agar-dilution; type: cell-based; conditions: Bacteroides thetaiotaomicron 1438
[6] = tested on: Peptococcus asaccharolyticus; experiment: MIC anaerobic bacteria, agar-dilution; type: cell-based; conditions: Peptococcus asaccharolyticus 1302
Propionibacterium acnes = experiment: MIC anaerobic bacteria, agar-dilution; type: cell-based; conditions: Propionibacterium acnes 79; agar-dilution (Table 9)
Clostridium perfringens = type: cell-based; conditions: Clostridium perfringens 81; agar-dilution
[7] = tested on: Streptococcus sp. Group D; experiment: MIC aerobic bacteria, standard agar-dilution assay; type: cell-based
Clostridium septicum = experiment: MIC anaerobic bacteria, agar-dilution; type: cell-based; conditions: Clostridium septicum 1128
[8] = tested on: Peptostreptococcus anaerobius; experiment: MIC anaerobic bacteria, agar-dilution; type: cell-based; conditions: Peptostreptococcus anaerobius 1428
Haemophilus influenzae = experiment: MIC aerobic bacteria, standard agar-dilution assay; type: cell-based
[9] = tested on: Fusobacterium necrophorum; experiment: MIC anaerobic bacteria, agar-dilution; type: cell-based; conditions: Fusobacterium necrophorum 6054A
[10] = tested on: Bacteroides melaninogenicus; experiment: MIC anaerobic bacteria, agar-dilution; type: cell-based; conditions: Bacteroides melaninogenicus 2736
Fusobacterium symbiosum = experiment: MIC anaerobic bacteria, agar-dilution; type: cell-based; conditions: Fusobacterium symbiosum 1470
Peptococcus prevoti = experiment: MIC anaerobic bacteria, agar-dilution; type: cell-based; conditions: Peptococcus prevoti 1281
Clostridium difficile [11] = experiment: MIC against Clostridium difficile strains, agar-dilution; type: cell-based
Source text: The A41030 antibiotic factors A, B, C, D, E, F, and G, are also active against a number of strains of Clostridium difficile, as determined by the agardilution method.

Staphylococcus aureus = experiment: MIC aerobic bacteria, standard agar-dilution assay; type: cell-based; conditions: Staphylococcus aureus S13E; agar-dilution, 24 hours
Bacteroides corrodens = experiment: MIC anaerobic bacteria, agar-dilution; type: cell-based; conditions: Bacteroides corrodens 1874
Streptococcus pyogenes = experiment: MIC aerobic bacteria, standard agar-dilution assay; type: cell-based; conditions: Streptococcus pyogenes C203, 24 hours
Bacteroides fragilis = experiment: MIC anaerobic bacteria, agar-dilution; type: cell-based
Streptococcus pneumoniae = experiment: MIC aerobic bacteria, standard agar-dilution assay; type: cell-based; conditions: Streptococcus pneumoniae Park I, 24 hours
[12] = Streptococcus sp. Group D 9960, 24 hours
[13] = Streptococcus sp. Group D X66, 24 hours
[14] = Haemophilus influenzae 76, 24 hours
[15] = Haemophilus influenzae C.L., 24 hours

A41030 factor E
MIC (Bacteroides vulgatis): 32 mg/L
MIC [1]: 0.25 mg/L
MIC (Eubacterium aerofaciens): 0.5 mg/L
possibly additional pKa's [2]: > 10
solubility (solvents) (Solubility in solvents): soluble in the same solvents as factor A
MIC (Clostridium difficile [3]): 0.5 mg/L
MIC [4]: 32 mg/L
MIC [5]: 64 mg/L
MIC [6]: ≤ 0.25 mg/L
MIC (Propionibacterium acnes): 0.5 mg/L
MIC (Clostridium perfringens): 1.0 mg/L
MIC [7, 12]: 1 mg/L
MIC [7, 13]: 1 mg/L
MIC (Clostridium septicum): 0.5 mg/L
MIC [8]: 32 mg/L
MIC (Haemophilus influenzae; [14]): 8 mg/L
MIC (Haemophilus influenzae; [15]): 8 mg/L
MIC [9]: 0.5 mg/L
MIC [10]: 32 mg/L
MIC (Fusobacterium symbiosum): 1.0 mg/L
MIC (Peptococcus prevoti): 32 mg/L
MIC (Clostridium difficile [11]; Clostridium difficile 78): 0.5 mg/L
MIC (Clostridium difficile [11]; Clostridium difficile 107B): 0.5 mg/L
MIC (Clostridium difficile [11]; Clostridium difficile 111F): 0.5 mg/L
MIC (Clostridium difficile [11]; Clostridium difficile 1153): 1.0 mg/L
MIC (Clostridium difficile [11]; Clostridium difficile 2634): 1.0 mg/L
MIC (Clostridium difficile [11]; Clostridium difficile 3424-5B): 0.5 mg/L
MIC (Clostridium difficile [11]; Clostridium difficile 3816): 0.5 mg/L
MIC (Clostridium difficile [11]; Clostridium difficile 3950D): 0.5 mg/L
MIC (Clostridium difficile [11]; Clostridium difficile 6890): 0.5 mg/L
MIC (Clostridium difficile [11]; Clostridium difficile 8484): 0.5 mg/L
MIC (Clostridium difficile [11]; Clostridium difficile A-194): 0.5 mg/L
MIC (Clostridium difficile [11]; Clostridium difficile A-195): 0.5 mg/L
MIC (Clostridium difficile [11]; Clostridium difficile A-196): 1.0 mg/L
MIC (Clostridium difficile [11]; Clostridium difficile A-279): 0.5 mg/L
MIC (Clostridium difficile [11]; Clostridium difficile A-280): 0.5 mg/L
MIC (Clostridium difficile [11]; Clostridium difficile A-281): 1.0 mg/L
MIC (Clostridium difficile [11]; Clostridium difficile WAL-2112): 0.5 mg/L
MIC (Clostridium difficile [11]; Clostridium difficile WAL-3657): 0.5 mg/L
MIC (Clostridium difficile [11]; Clostridium difficile WAL-4268): 0.5 mg/L
MIC (Staphylococcus aureus): 0.25 mg/L
MIC (Bacteroides corrodens): 64 mg/L
MIC (Streptococcus pyogenes): 0.25 mg/L
MIC (Bacteroides fragilis; Bacteroides fragilis 111): 64 mg/L
MIC (Bacteroides fragilis; Bacteroides fragilis 1877): 32 mg/L
MIC (Bacteroides fragilis; Bacteroides fragilis 1936B): 64 mg/L
MIC (Streptococcus pneumoniae): 0.25 mg/L

A41030 factor F
MIC (Bacteroides vulgatis): 32 mg/L
MIC [1]: 0.25 mg/L
MIC (Eubacterium aerofaciens): 1.0 mg/L
possibly additional pKa's [2]: > 10
solubility (solvents) (Solubility in solvents): soluble in the same solvents as factor A
MIC (Clostridium difficile [3]): 1.0 mg/L
MIC [4]: 1.0 mg/L
MIC [5]: 64 mg/L
MIC [6]: ≤ 0.25 mg/L
MIC (Propionibacterium acnes): 1.0 mg/L
MIC (Clostridium perfringens): 1.0 mg/L
MIC [7, 12]: 4 mg/L
MIC [7, 13]: 4 mg/L
MIC (Clostridium septicum): 1.0 mg/L
MIC [8]: 32 mg/L
MIC (Haemophilus influenzae; [14]): 32 mg/L
MIC (Haemophilus influenzae; [15]): 32 mg/L
MIC [9]: 1.0 mg/L
MIC [10]: 1.0 mg/L
MIC (Fusobacterium symbiosum): 1.0 mg/L
MIC (Peptococcus prevoti): 32 mg/L
MIC (Clostridium difficile [11]; Clostridium difficile 78): 1.0 mg/L
MIC (Clostridium difficile [11]; Clostridium difficile 107B): 1.0 mg/L
MIC (Clostridium difficile [11]; Clostridium difficile 111F): 2 mg/L
MIC (Clostridium difficile [11]; Clostridium difficile 1153): 2 mg/L
MIC (Clostridium difficile [11]; Clostridium difficile 2634): 2 mg/L
MIC (Clostridium difficile [11]; Clostridium difficile 3424-5B): 1.0 mg/L
MIC (Clostridium difficile [11]; Clostridium difficile 3816): 1.0 mg/L
MIC (Clostridium difficile [11]; Clostridium difficile 3950D): 1.0 mg/L
MIC (Clostridium difficile [11]; Clostridium difficile 6890): 1.0 mg/L
MIC (Clostridium difficile [11]; Clostridium difficile 8484): 1.0 mg/L
MIC (Clostridium difficile [11]; Clostridium difficile A-194): 1.0 mg/L
MIC (Clostridium difficile [11]; Clostridium difficile A-195): 1.0 mg/L
MIC (Clostridium difficile [11]; Clostridium difficile A-196): 2 mg/L
MIC (Clostridium difficile [11]; Clostridium difficile A-279): 1.0 mg/L
MIC (Clostridium difficile [11]; Clostridium difficile A-280): 1.0 mg/L
MIC (Clostridium difficile [11]; Clostridium difficile A-281): 2 mg/L
MIC (Clostridium difficile [11]; Clostridium difficile WAL-2112): 1.0 mg/L
MIC (Clostridium difficile [11]; Clostridium difficile WAL-3657): 1.0 mg/L
MIC (Clostridium difficile [11]; Clostridium difficile WAL-4268): 1.0 mg/L
MIC (Staphylococcus aureus): 1 mg/L
MIC (Bacteroides corrodens): 32 mg/L
MIC (Streptococcus pyogenes): 2 mg/L
MIC (Bacteroides fragilis; Bacteroides fragilis 111): 32 mg/L
MIC (Bacteroides fragilis; Bacteroides fragilis 1877): 32 mg/L
MIC (Bacteroides fragilis; Bacteroides fragilis 1936B): 32 mg/L
MIC (Streptococcus pneumoniae): 2 mg/L
